The nature of data set [1]: Cell toxicity / % cell viability by flow cytometry (cells in total events v. untreated). It is filed as cell-based, human. The conditions noted are these: human, THP-1 cells, Cell viability (%) (±St. Dev.; n = 3), FIG. 17B; THP-1; GFP-NLS 5 μM; shuttle 1 μM; 5 minutes. (In general: Flow cytometry measures light scatter and fluorescence of single cells or particles in a stream.)
Excerpt: (§4) The fluorescence of GFP was quantified using flow cytometry (Accuri C6, Becton, Dickinson and Company (BD)). Untreated cells were used to establish a baseline in order to quantify the increased fluorescence due to the internalization of the fluorescent protein in treated cells. The percentage of cells with a fluorescence signal above the maximum fluorescence of untreated cells, “mean %” or “Pos cells (%)”, is used to identify positive fluorescent cells. “Relative fluorescence intensity (FL1-A)” corresponds to the mean of all fluorescence intensities from each cell with a fluorescent signal after fluorescent protein delivery with the shuttle agent. Also, the events scanned by flow cytometry corresponding to cells (size and granularity) were analyzed. The cellular toxicity (% cell viability) was monitored comparing the percentage of cells in the total events scanned of treated cells comparatively to untreated cells.

In data set [2] the test system is primary myoblasts. The experiment in a line: Calcein endosomal escape assay, quantification by flow cytometry. The format is cell-based, Human. As for the experimental part: (§1) In addition to microscopy, flow cytometry allows a more quantitative analysis of the endosomal leakage as the fluorescence intensity signal increases once the calcein is released in the cytoplasm. Calcein fluorescence is optimal at physiological pH (e.g., in the cytosol), as compared to the acidic environment of the endosome.
(§2) The cells were allowed to attach by incubating overnight in appropriate growth media, as described in Example 1. The next day, the media in wells was removed and replaced with 50 μL of fresh media without serum containing 62.5 μg/mL (100 μM) of calcein, except for HEK293A (250 μg/mL, 400 μM). At the same time, the shuttle agent(s) to be tested was added at a predetermined concentration. The plate was incubated at 37° C. for 30 minutes. The cells were washed with 1×PBS (37° C.) and fresh media containing 5-10% serum was added. The plate was incubated at 37° C. for 2.5 hours. The cells were washed with 1×PBS and detached using trypsinization.
(§3) Untreated calcein-loaded cells were used as a control to distinguish cells having a baseline of fluorescence due to endosomally-trapped calcein from cells having increased fluorescence due to release of calcein from endosomes. Fluorescence signal means (“mean counts”) were analyzed for endosomal escape quantification. In some cases, the “Mean Factor” was calculated, which corresponds to the fold-increase of the mean counts relative to control (untreated calcein-loaded cells). […] The cellular mortality was monitored with the percentage of cells in the total events scanned. When it became lower than the control, it was considered that the number of cellular debris was increasing due to toxicity and the assay was discarded.
To examine the effects of the shuttle agents on primary cells, primary myoblast cells were cultured and tested in the endosomal escape assays as described in Example 2.1. The results of flow cytometry analyses are summarized below in Tables 2.9 and 2.10, and in FIG. 4. In each case, the flow cytometry results were also confirmed by fluorescence microscopy.

The test system of data set [3] is HeLa cells. The experiment in a line: Cell toxicity / % cell viability by flow cytometry (cells in total events v. untreated). The format is cell-based, Human. The conditions noted are these: HeLa; GFP-NLS 5 μM; shuttle 1 μM; 1 hour.
Excerpt: as §4
Experiment in data set [4]: as above
It is filed as cell-based, Human. The conditions noted are these: human, HeLa cells, HeLa, 1 hour; for viability at 1 h, 0.5 µM / viability at 1 h, 1 µM / viability at 1 h, 3 µM / viability at 1 h, 5 µM: Cell viability (%) (±St. Dev.; n = 3), read-out: Cell viability (%) (±St. Dev.; n = 3); for viability at 1 h, 0.5 µM: shuttle 0.5 μM; for viability at 1 h, 1 µM: shuttle 1 μM; for viability at 1 h, 3 µM: shuttle 3 μM; for viability at 1 h, 5 µM: shuttle 5 μM.
Excerpt: as §4

In data set [5] the test system is HeLa cells. Description: GFP-NLS transduction efficiency, flow cytometry (Pos cells %, relative fluorescence intensity FL1-A). The format is cell-based, Human. The conditions noted are these: GFP-NLS 5 μM, 1 hour.
The test system of data set [6] is HeLa cells. The format is cell-based, Human. As for the experimental part:
as §1, §2, §3
HeLa cells were cultured and tested in the endosomal escape assays as described in Example 2.1. In each case, the flow cytometry results were also confirmed by fluorescence microscopy (data not shown).

In data set [7] the test system is HeLa cells. The experiment in a line: GFP transduction efficiency, flow cytometry (% GFP-positive cells). It is filed as cell-based, Human. The conditions noted are these: for Mean (%) (n = 3), FIG. 7B: shuttle 2.5 μM. As for the experimental part:
GFP, GFP-NLS and TAT-GFP are recombinant proteins developed and produced by Feldan (see Example 3.4 below).
Briefly, GFP recombinant protein was co-incubated with different concentrations of CM18-TAT-Cys or dimerized CM18-TAT-Cys (dCM18-TAT-Cys), and then exposed to HeLa cells for 1 hour.
Briefly, GFP recombinant protein (5 μM) was co-incubated with different concentrations and combinations of CM18-TAT-Cys, CM18-Penetratin-Cys, and dimers of each (dCM18-TAT-Cys, dCM18-Penetratin-Cys), and then exposed to HeLa cells for 1 hour. […] The results are shown in Table 3.3 and FIG. 8, as well as in Table 3.4 and FIG. 9.

[8] abbreviates: FIG. 11B, TAT-GFP 5 μM, FIG. 11B.
Where [9] appears, read: FIG. 13B, GFP-NLS 5 μM, FIG. 13B.
Setting [10] is: FIG. 21B, GFP-NLS 5 μM, FIG. 21B.

Read-outs that look alike come from different tables or passages of the source. Where no end group is shown, it is not given here.

In turn, “KWKLFKKIGAVLKVLTTGYGRKKRRQRRRC [CM18-TAT-Cys]” had a viability at 5 min, 1 µM in data set [1] of 85 ± 6%. Moreover, in data set [2] (myoblast cells), the “concentrations associated with an increase in cell toxicity” value is listed as “above 10 μM”. For the same sequence, the “Cell viability (%) (±St. Dev.; n = 3), FIG. 21B” value in data set [3] stood at 94 ± 4.28%. Further, the viability at 1 h, 0.5 µM in data set [4] (FIG. 6B, GFP 5 μM, FIG. 6B) amounted to 88.4 ± 6%; in data set [4] (setting [8]) it was 84.4 ± 5%; in data set [4] (setting [9]), 87.6 ± 4%. Further, the viability at 1 h, 1 µM in data set [4] (FIG. 6B, GFP 5 μM, FIG. 6B) came out at 90 ± 6%; in data set [4] (setting [8]), 89.3 ± 5.26%; in data set [4] (setting [9]) it was 93 ± 8%. For the same sequence, the viability at 1 h, 3 µM came to 91 ± 5% in data set [4] (FIG. 6B, GFP 5 μM, FIG. 6B); 93.2 ± 6.28% in data set [4] (setting [8]); 94 ± 5% in data set [4] (setting [9]); 89 ± 5.37% in data set [4] (setting [10]). Also, the viability at 1 h, 5 µM in data set [4] (FIG. 6B, GFP 5 μM, FIG. 6B) turned out to be 90 ± 7%; in data set [4] (setting [8]) it was 95.1 ± 5.28%; in data set [4] (setting [9]) it was 93 ± 4%; in data set [4] (setting [10]) it was 81 ± 6.34%. Besides, the viability at 1 h, 3.5 µM in data set [4] (antibody 0.5 μM, shuttle 3.5 μM, read-out: Cell viability (%) (± St. Dev.; n = 3), FIG. 19B) is 95 ± 4.06%.
Take “KWKLFKKIGAVLKVLTTGYGRKKRRQRRRC [dCM18-TAT-Cys]”: in data set [5] (Tables 5.2, 5.3, FIGS. 14, 15), the “GFP-NLS transduction efficiency / intracellular delivery (in words)” value is reported as “increased”. In addition, the “Mean (%) (n = 3), FIG. 14” value in data set [5] (shuttle 0.5 μM) turned out to be 8.29%. The “Mean (%) (n = 3), FIG. 15” value in data set [5] (shuttle 1 μM) is reported as 17.83%. Moreover, the “Mean Factor” value is given as 1.3 in data set [6] (Table 2.6, dimer 2 μM); 3.1 in data set [6] (Table 2.7, dimer 2 μM); 2.1 in data set [2] (primary myoblasts, peptide 2.5 μM, factor v. no peptide). Besides, the “Mean counts (n = 4)” value in data set [6] (Table 2.6, dimer 2 μM) is 79 380. Moreover, the “Mean counts (n = 3)” value in data set [6] (Table 2.7, dimer 2 μM) is recorded as 174 274. The Mean counts in data set [2] (primary myoblasts, peptide 2.5 μM, Table 2.11) is reported as 64 864. Further, the “GFP transduction efficiency / intracellular delivery (in words)” value in data set [7] (GFP 5 μM, 1 hour, Table 3.3 and FIG. 8) is reported as “increased”; in data set [7] (GFP 5 μM, 1 hour, Table 3.4 and FIG. 9), “increased”. The “Mean (%) (n = 3), FIG. 8” value in data set [7] (GFP 5 μM, shuttle 0.5 μM, 1 hour) is 8.86%. Further, in data set [7] (GFP 5 μM, shuttle 1 μM, 1 hour), the “Mean (%) (n = 3), FIG. 9” value is listed as 18.43%. Besides, the “Mean (%) (n = 3), FIG. 7B” value in data set [7] (GFP 1 μM) is reported as 9.38%; in data set [7] (GFP 5 μM), 22.2%; in data set [7] (GFP 10 μM) it was 34.2%.

By viability is commonly meant the share of living cells, or the viability signal relative to a control.

Source of the values: US12060387B2, “Polypeptide-based shuttle agents for improving the transduction efficiency of polypeptide cargos to the cytosol of target eukaryotic cells, uses thereof, methods and kits relating to same” (priority 2015, dated 2024).
